Assay results: US5068247A, “2-aminopentanoic acid compounds and their use as immunosuppressants” (priority 1989, dated 1991)
Values after ≈ are worked out from the molar mass of the structure shown. Where a name gives a salt, the structure may show the parent alone.

Assays:
[1] = test system: mouse allogenic MLR (BALB/c mouse spleen cells stimulated with C57BL/6 mouse spleen cells); assay: mouse allogenic mixed lymphocyte reaction (MLR), 3H-thymidine uptake; assay type: cell-based
Description: The immunosuppressive activity of the compounds was assayed on the basis of mouse allogenic mixed lymphocyte reaction (hereinafter sometimes abbreviated as MLR). Mouse allogenic MRL was carried out using a mixed culture of BALB/c mouse (H-2^d) spleen cells as the responder cells and mitomycin C-treated C57BL/6 ([…]) mouse spleen cells as the stimulator cells in equal amounts.
The responder cells were prepared as follows:
The spleen was resected from 5- to 6-week-old BALB/c mice, and single cell suspension of spleen cells was prepared by using the RPMI1640 culture medium (containing 60 μg/ml of kanamycin sulfate, 2 mM of L-glutamine, 10 mM of N-2-hydroxyethylpiperazine-N'-2-ethanesulphonate (HEPES) and 0.1% sodium hydrogencarbonate) to which heat-inactivated fetal calf serum (hereinafter sometimes abbreviated as FCS) had been added to 5%. After hemolytic treatment, the cell suspension was adjusted to a concentration of 10^7 cells/ml with the RPMI1640 culture medium supplemented with 10^-4 M 2-mercapto-ethanol and 20% FCS, and was used as the responder cell suspension.
The stimulator cells were prepared as follows: The spleen was resected from 5- to 6-week-old male C57BL/6 mice, and a single cell suspension of spleen cells was prepared by using the RPMI1640 culture medium. After hemolytic treatment, the cells were treated with 40 μg/ml of mitomycin C at 37° C. for 60 minutes. After washing three times, the cell suspension was adjusted to a concentration of 10^7 cells/ml with the RPMI1640 culture medium supplemented with 10^-4 M 2-mercapto-ethanol and 20% FCS, and was used as the stimulator cell suspension.
The blastogenesis of lymphocytes was assayed using ^3 H-thymidine uptake as an index. That is, after termination of culture, 18.5 KBq/well of ^3 H-thymidine was added thereto and the suspension was cultured for 4 hours. Cells were harvested by a cell-harvester, and the radioactivity incorporated into the cells was determined by a liquid scintillation counter, which was used as an index of blastogenesis of lymphocytes in the mouse allogenic MLR. The suppression of the mouse allogenic MLR was evaluated by calculating the percent suppression by the following formula.
The test substance dissolved in methanol was diluted with the RPMI1640 culture medium and put to use.

[2] = test system: allo-specific cytotoxic antibody in serum of EL4-immunized BALB/c mice; assay: suppression of allo-specific cytotoxic antibody production induced by allogenic cell immunization of mouse; assay type: in vivo
Description: Male 5- to 7-week-old BALB/c mice were immunized with leukemia cell EL4 derived from C57BL/6 mice (10^7 cells/mouse, intraperitoneal administration) in the same way as in Experiment Example 9, and the […] Nine to ten days after immunization, a serum was collected from the mice. Fifty μl of the two-fold serial dilution of the serum, 50 μl of a guinea pig complement and EL4 cell suspension labelled with ^51 Cr as the target cell (5×10^4 cells/ml, 100 μl) were together added to a 96-well microtest plate. After incubation at 37° C. for 1 hour, the amount of ^51 Cr released in the supernatant was measured, and the complement-dependent cytotoxicity was calculated by the following formula. [formula]
The value of allo-specific cytotoxic antibody determined as above was expressed by the titer calculated on the basis of the concentration at which the releasing amount of ^51 Cr was 50% of that of ^51 Cr-labelled target cells treated with 0.1 N HCl.

[3] = test system: allo-reactive cytotoxic T cells in spleen of EL4-immunized BALB/c mice; assay: suppression of allo-reactive cytotoxic T cells induced by immunization of mouse with allogenic cells; assay type: in vivo; conditions: Table 9F
Description: Male 5- to 7-week-old BALB/c mice (H-2^d) were immunized with leukemia cell EL4 derived from C57BL/6 mice (H-2^b) (10^7 cells/mouse, intraperitoneal administration), and the test substance was administered intraperitoneally 5 times at the doses of 0.001 to 3 mg/kg/day or orally at the doses of 0.3 to 10 mg/kg/day from the day of immunization. Nine to ten days after immunization, the spleen was resected from the mice to prepare a single cell suspension and the suspension was used as effector cell suspension. The ^51 Cr-release assay was carried out in the same way as in Experiment Example 3, using EL4 cells as the target cells to measure the cytotoxic activity.
The activity of allo-reactive cytotoxic T cell is indicated by lytic unit (LU) per spleen. One lytic unit (LU) is defined as the number of effector cells required to cause 25% lysis of 5×10^3 target cells. At the same time, the body weight of mouse and number of spleen cells were also determined.

[4] = test system: IL-2 production in PHA-stimulated mouse spleen cells; assay: suppression of IL-2 production in PHA-stimulated mouse spleen cells; assay type: cell-based
Description: (§1) The suppression of IL-2 and IL-3 production in the mitogen-stimulated mouse spleen cells was examined as follows:
(§2) The spleen was resected from 5- to 8-week-old male C3H/HeN mice, and a single cell suspension of spleen cells was prepared by using the RPMI1640 culture medium. After hemolytic treatment, the concentration of the suspension was adjusted to 10^7 cells/ml by using the RPMI1640 culture medium supplemented with 20% FCS, to which 10 μg/ml of phytohemagglutinin (PHA) was added as mitogen. […] After termination of culture, the supernatant was collected and used as the culture supernatant of PHA-stimulated mouse spleen cells.
The IL-2 activity in the culture supernatant of PHA-stimulated mouse spleen cells was assayed as follows:
IL-2 dependent mouse cell line CTLL-2 cells were suspended in the RPMI1640 culture medium supplemented with 30% FCS to the concentration of 2×10^5 cells/ml. One hundred μl of the cell suspension and 100 μl of the two-fold serial dilution of the culture supernatant of PHA-stimulated mouse spleen cells were added to a 96-well flat-bottomed microtest plate. […] The IL-2 activity is expressed in U/ml as the dilution at which the absorbancy measured by MTT method was 50% of the maximum.

[5] = test system: IL-3 production in PHA-stimulated mouse spleen cells; assay: suppression of IL-3 production in PHA-stimulated mouse spleen cells; assay type: cell-based
Description: as §1, §2
The IL-3 activity was assayed as follows:
IL-3-dependent mouse cell line FDC-P2 cells were suspended in the RPMI1640 culture medium supplemented with 10% FCS to the concentration of 2×10^5 cells/ml. One hundred μl of the cell suspension and 100 μl of the two-fold serial dilution of the culture supernatant of PHA-stimulated mouse spleen cells described above were added to a 96-well flat-bottomed microtest plate. […] The IL-3 activity is expressed in U/ml as the dilution at which the absorbancy measured by MTT method was 50% of the maximum.

[6] = 0.003 mg/kg/day iv × 9, Table 10F
[7] = 0.01 mg/kg/day iv × 9, Table 10F
[8] = 0.03 mg/kg/day ip × 5, Table 10E
[9] = 0.03 mg/kg/day iv × 9, Table 10F
[10] = 0.1 mg/kg/day ip × 5, Table 10E
[11] = 0.1 mg/kg/day iv × 9, Table 10F
[12] = 0.3 mg/kg/day ip × 5, Table 10E
[13] = 0.3 mg/kg/day iv × 9, Table 10F
[14] = Mus musculus, 24 h, 0.001 μg/ml, read-out: Suppression
[15] = Mus musculus, 24 h, 0.01 μg/ml, read-out: Suppression
[16] = Mus musculus, 24 h, 0.1 μg/ml, read-out: Suppression
[17] = Mus musculus, 24 h, 1 μg/ml, read-out: Suppression

CCCCCCCCCCCCC/C=C/C[C@@H](O)[C@H](O)[C@@](N)(CO)C(=O)O [potassium salt of compound of Example 5]
3H-thymidine uptake ([1]; 0.0001 μg/ml, Table 1B): 5622 ± 898 cpm
Suppression ([1]; 0.0001 μg/ml, Table 1B): 0%
3H-thymidine uptake ([1]; 0.001 μg/ml, Table 1B): 4984 ± 3755 cpm
Suppression ([1]; 0.001 μg/ml, Table 1B): 7.5%
3H-thymidine uptake ([1]; 0.01 μg/ml, Table 1B): 1324 ± 16 cpm
Suppression ([1]; 0.01 μg/ml, Table 1B): 85.5%
3H-thymidine uptake ([1]; 0.1 μg/ml, Table 1B): 787 ± 257 cpm
Suppression ([1]; 0.1 μg/ml, Table 1B): 97.0%
3H-thymidine uptake ([1]; 1 μg/ml, Table 1B): 783 ± 28 cpm
Suppression ([1]; 1 μg/ml, Table 1B): 97.1%

CCCCCCCCCCCCC/C=C/C[C@@H](O)[C@H](O)[C@@](N)(CO)C(=O)O [sodium salt of the compound of Example 5]
Allogenic cell-specific antibody in serum, suppression [2, 6]: 6.0%
Allogenic cell-specific antibody in serum, titer [2, 6]: 236 ± 76
Allogenic cell-specific antibody in serum, suppression [2, 7]: 39.4%
Allogenic cell-specific antibody in serum, titer [2, 7]: 152 ± 27
Allogenic cell-specific antibody in serum, suppression [2, 8]: 50.3%
Allogenic cell-specific antibody in serum, titer [2, 8]: 94 ± 14
Allogenic cell-specific antibody in serum, suppression [2, 9]: 68.5%
Allogenic cell-specific antibody in serum, titer [2, 9]: 79 ± 50
Allogenic cell-specific antibody in serum, suppression [2, 10]: 73.5%
Allogenic cell-specific antibody in serum, titer [2, 10]: 50 ± 4
Allogenic cell-specific antibody in serum, suppression [2, 11]: 84.1%
Allogenic cell-specific antibody in serum, titer [2, 11]: 40 ± 23
Allogenic cell-specific antibody in serum, suppression [2, 12]: 88.9%
Allogenic cell-specific antibody in serum, titer [2, 12]: 21 ± 8
Allogenic cell-specific antibody in serum, suppression [2, 13]: 81.7%
Allogenic cell-specific antibody in serum, titer [2, 13]: 46 ± 11
production of allo-specific cytotoxic antibody, sodium salt relative to the compound of Example 5 (in words) ([2]; Table 10E): suppressive activity almost equivalent to that of the compound of Example 5 other than sodium salt
suppressive activity of the sodium salt relative to that of the compound of Example 5 ([1]; Table 1B): almost the equivalent suppressive activity
induction of allo-reactive cytotoxic T cells, sodium salt relative to the compound of Example 5 (in words) [3]: suppressive activity almost equivalent to that of the compound of Example 5 other than sodium salt

N[C@](CO)(C(=O)O)[C@@H](O)[C@H](O)CCO [Example 6]
3H-thymidine uptake ([1]; 0.0001 μg/ml, Table 1A): 16771 cpm
3H-thymidine uptake ([1]; 0.001 μg/ml, Table 1A): 13692 cpm
3H-thymidine uptake ([1]; 0.01 μg/ml, Table 1A): 13806 cpm
3H-thymidine uptake ([1]; 0.1 μg/ml, Table 1A): 14508 cpm
3H-thymidine uptake ([1]; 1 μg/ml, Table 1A): 7545 cpm
inhibition at 0.0001 µg/mL ([1]; Mus musculus, Lymphocyte, 0.0001 μg/ml, Table 1A, read-out: Suppression): 9.9%
inhibition at 0.001 µg/mL ([1]; Mus musculus, Lymphocyte, 0.001 μg/ml, Table 1A, read-out: Suppression): 18.5%
inhibition at 0.01 µg/mL ([1]; Mus musculus, Lymphocyte, 0.01 μg/ml, Table 1A, read-out: Suppression): 27.5%
inhibition at 0.1 µg/mL ([1]; Mus musculus, Lymphocyte, 0.1 μg/ml, Table 1A, read-out: Suppression): 23.4%
inhibition at 1 µg/mL ([1]; Mus musculus, Lymphocyte, 1 μg/ml, Table 1A, read-out: Suppression): 64.8%
IC50 ([1]; Mus musculus, Lymphocyte, read-out: 50%-inhibition concentration (IC50) in mouse allogenic MLR): 0.045 µg/mL (≈ 0.215 µM)
IL-2 activity ([4]; 0.001 μg/ml): 12.6 U/ml
IL-2 activity ([4]; 0.01 μg/ml): 10.2 U/ml
IL-2 activity ([4]; 0.1 μg/ml): 9.5 U/ml
IL-2 activity ([4]; 1 μg/ml): 8.3 U/ml
inhibition at 0.001 µg/mL [4, 14]: 6.7%
inhibition at 0.01 µg/mL [4, 15]: 24.4%
inhibition at 0.1 µg/mL [4, 16]: 29.6%
inhibition at 1 µg/mL [4, 17]: 38.5%
IL-3 activity ([5]; 0.001 μg/ml): 23.8 U/ml
IL-3 activity ([5]; 0.01 μg/ml): 23.4 U/ml
IL-3 activity ([5]; 0.1 μg/ml): 23.3 U/ml
IL-3 activity ([5]; 1 μg/ml): 20.0 U/ml
inhibition at 0.001 µg/mL [5, 14]: 2.9%
inhibition at 0.01 µg/mL [5, 15]: 4.5%
inhibition at 0.1 µg/mL [5, 16]: 4.9%
inhibition at 1 µg/mL [5, 17]: 18.4%
